Test results reported in the NIST ThermoML archive (doi:10.1021/je900888e).

Assay: mn = molality of the nth substance listed, in mol/kg
Conditions: 101 kPa, Liquid; for speed of sound: Pulse-echo method

CCCC[P+](CCCC)(CCCC)CCCC.[Br-] [tetrabutylphosphonium bromide] + CCCCO
Conditions | mass density, 288.15 K [kg/m3] | mass density, 293.15 K [kg/m3] | mass density, 298.15 K [kg/m3] | mass density, 303.15 K [kg/m3] | mass density, 308.15 K [kg/m3] | mass density, 313.15 K [kg/m3] | mass density, 323.15 K [kg/m3] | speed of sound, 298.15 K [m/s]
m1 = 0.009722 | 813.972 | 810.179 | 806.37 | 802.533 | 798.665 | 794.76 | 786.817 | –
m1 = 0.01455 | 814.314 | 810.525 | 806.716 | 802.882 | 799.017 | 795.113 | 787.175 | –
m1 = 0.01936 | 814.655 | 810.867 | 807.061 | 803.227 | 799.366 | 795.464 | 787.531 | 1240.1
m1 = 0.0242 | 814.996 | 811.209 | 807.404 | 803.574 | 799.712 | 795.815 | 787.89 | –
m1 = 0.02918 | 815.348 | 811.563 | 807.767 | 803.93 | 800.07 | 796.175 | 788.253 | –
m1 = 0.0369 | 815.894 | 812.109 | 808.382 | 804.48 | 800.621 | 796.727 | 788.815 | 1241
m1 = 0.05364 | 817.07 | 813.293 | 809.495 | 805.673 | 801.825 | 797.943 | 790.046 | 1242
m1 = 0.07129 | 818.321 | 814.549 | 810.756 | 806.941 | 803.095 | 799.213 | 791.333 | 1243
m1 = 0.09251 | 819.818 | 816.049 | 812.265 | 808.455 | 804.62 | 800.743 | 792.887 | 1244.1
m1 = 0.1101 | 821.058 | 817.297 | 813.514 | 809.71 | 805.879 | 802.009 | 794.162 | 1245.1
m1 = 0.1395 | 823.126 | 819.37 | 815.598 | 811.804 | 807.981 | 804.127 | 796.295 | 1246.7
m1 = 0.1776 | 825.836 | 822.089 | 818.326 | 814.54 | 810.729 | 806.888 | 799.08 | 1248.8
m1 = 0.218 | 828.688 | 824.949 | 821.197 | 817.424 | 813.625 | 809.794 | 802.026 | 1251.1
m1 = 0.2537 | 831.238 | 827.51 | 823.765 | 820.001 | 816.21 | 812.388 | 804.641 | 1252.9
m1 = 0.2955 | 834.232 | 830.511 | 826.778 | 823.022 | 819.242 | 815.431 | 807.714 | 1255.3
m1 = 0.3323 | 836.873 | 833.16 | 829.434 | 825.687 | 821.922 | 818.127 | 810.433 | 1257.1
